From publication PMC9986306, “Beyond CBD: Inhibitory effects of lesser studied phytocannabinoids on human voltage-gated sodium channels” (Frontiers in Physiology, 2023)
Marks after values point to notes of the source that are not given here.

Tests used:
[1] = system: electrically induced seizure model; parameters: method as in Davis and Hatoum, 1983; conditions: ref Davis and Hatoum, 1983; cited from earlier work
[2] = molecular target: T1, human NaV1.7 channel (SCN9A, CHO cells) (Homo sapiens, UniProt Q15858); assay: Planar patch-clamp, inhibition of peak sodium current (IC50 protocol); type: cell-based; conditions: for Effect on peak sodium current (in words): NaV1.7, 0.1–100 μM, no maximal inhibition at 100 µM
T1 construct: expressed in transfected cells
Description: (§1) HEK293T cells stably expressing SCN1A or SCN2A and CHO cells stably expressing SCN8A or SCN9A were maintained as previously described ([Richards et al., 2018]; [Milligan et al., 2022]).
(§2) Patch-clamp recordings were made using a Patchliner® (Nanion Technologies, Munich, Germany) in the whole-cell configuration as previously described ([Richards et al., 2018]; [Milligan et al., 2022]). Briefly, cells were prepared in suspension at a density of 1 × 10^6-5 × 10^7 cells/mL. The external recording solution comprised (in mM): 140 NaCl, 4 KCl, 1 MgCl2, 2 CaCl2, 5 D-glucose, 10 HEPES, pH 7.4 with NaOH, ∼295 mOsm. The internal recording solution comprised (in mM): 50 CsCl, 60 CsF, 10 NaCl, 20 EGTA, 10 HEPES, pH 7.2 with CsOH, ∼285 mOsm. Medium single-hole planar NPC-16 chips with an average resistance of ∼2.5 MΩ were used. Chip and whole-cell capacitance were fully compensated, and 50% series resistance compensation applied. Recordings were acquired at 50 kHz with the low pass filter set to 10 kHz in PATCHMASTER (HEKA Instruments, NY, United States) and performed at 27°C. Offline analysis was performed using Microsoft Excel, MatLab R2019a (MathWorks) and GraphPad Prism 8 (Molecular Devices).
(§3) To determine half-maximal inhibitory concentrations (IC50), cells were held at −80 mV, stepped to −120 mV for 200 ms followed by 50 ms test depolarization to 0 mV every 2 s for 30 s in the presence of vehicle control (DMSO). The cells were then exposed to an individual phytocannabinoid (CBD, CBGA, CBDVA, CBG, CBCA or CBC) at concentrations between 0.1 and 100 μM, sequentially for 5 min. Currents for individual cells were averaged over 24 s periods directly before application and following a 5 min exposure of compound. Leak subtraction was applied before normalization of current amplitude. Normalized mean data were fit to the Hill equation.

[3] = molecular target: T2, human NaV1.2 channel (SCN2A, HEK293T cells) (Homo sapiens, UniProt Q99250); assay: as above; type: cell-based; conditions: for Effect on peak sodium current (in words): NaV1.2, 0.1–100 μM, no maximal inhibition at 100 µM
T2 construct: expressed in transfected cells
Description: as §1, §2, §3

[4] = molecular target: T3, human NaV1.6 channel (SCN8A, CHO cells) (Homo sapiens, UniProt Q9UQD0); assay: as above; type: cell-based; conditions: for Effect on peak sodium current (in words): NaV1.6, 0.1–100 μM, no maximal inhibition at 100 µM
T3 construct: expressed in transfected cells
Description: as §1, §2, §3

[5] = molecular target: T4, human NaV1.1 channel (SCN1A, HEK293T cells) (Homo sapiens, UniProt P35498); assay: as above; type: cell-based; conditions: NaV1.1; 0.1–100 μM, no maximal inhibition at 100 µM
T4 construct: expressed in transfected cells
Description: as §1, §2, §3

[6] = system: Scn1a+/− mouse model of DS; parameters: method as in Anderson et al., 2021a; Anderson et al., 2021b; conditions: Scn1a+/− mice, ref Anderson et al., 2021a, 2021b; cited from earlier work
[7] = parameters: method as in Anderson et al., 2019b; conditions: CBDVA; ref Anderson et al., 2019b; cited from earlier work
[8] = molecular target: T1, human NaV1.7 channel (SCN9A, CHO cells); assay: Planar patch-clamp, biophysical properties (activation, SSFI, recovery from SSFI); type: cell-based; conditions: change vs vehicle DMSO at IC50 concentration (CBD 11.9 μM, CBGA 16.4 μM, CBDVA 60 μM)
Description: as §1, §2
(§4) Voltage protocols were used, as previously described ([Richards et al., 2018]). Briefly, to study the voltage-dependence of activation, cells were held at −120 mV and depolarized to test potentials, in 5 mV increments, between −120 mV and +50 mV for 100 ms. To study steady-state fast inactivation, cells were held at conditioning pre-pulse potentials ranging from −120 mV to +30 mV in 5 mV increments from a holding potential of −120 mV and a test pulse at 5 mV for 20 ms. Recovery from fast inactivation was studied by pre-pulsing the cells to 0 mV from a holding potential of −120 mV for 50 ms, to fully inactivate channels. The voltage was then stepped back to the holding potential for variable interpulse intervals (ipi from 0 to 39 ms in 3 ms increments). To test channel availability, the voltage was stepped to 0 mV for 50 ms.
(§5) To examine the voltage-dependence of activation, normalized current-voltage (I-V) relationships were converted to conductance (G) using the following equation: G = I/(V−V r ) where Vr is the reversal potential for Na^+. The voltage-dependence of conductance and availability were normalized and fitted to a Boltzmann equation: G = 1/(1 + exp [(V−V 0.5)/a]), where a is the slope of the half-maximum, V is the potential of the given pulse, and V 0.5 is the potential for the half-maximal activation/inactivation. The time course of inactivation was fitted to a single exponential function I/Imax = I0+A*exp (-t-t0/τ)+C, where I0 is the non-inactivating component, Imax is the peak current, t is time, and A is the component for the time constant τ. Time constants were plotted against voltage and the data fitted with a decaying exponential equation Y = span*exp (−K*x)+plateau, where span is the starting point of the curve, K is the decay factor, plateau is the value the curve decays to, and x is time. To measure recovery from inactivation, normalized currents were plotted against ipi and data fitted with equation I/I max = 1-exp/(rc + x), where I max is maximal current; rc recovery rate constant; x is time. Peak current (I) was plotted as fractional recovery against the recovery period by normalizing to the maximum current (Imax) during the conditioning potentials.

[9] = molecular target: T2, human NaV1.2 channel (SCN2A, HEK293T cells); assay: as above; type: cell-based; conditions: change vs vehicle DMSO at IC50 concentration (CBD 18.4 μM, CBGA 14.7 μM, CBDVA 60 μM)
Description: as §1, §2, §4, §5

[10] = molecular target: T3, human NaV1.6 channel (SCN8A, CHO cells); assay: as above; type: cell-based; conditions: change vs vehicle DMSO at IC50 concentration (CBD 16.6 μM, CBGA 12.0 μM, CBDVA 24.1 μM)
Description: as §1, §2, §4, §5

[11] = molecular target: T4, human NaV1.1 channel (SCN1A, HEK293T cells); assay: as above; type: cell-based; conditions: change vs vehicle DMSO at IC50 concentration (CBD 18.5 μM, CBGA 13.6 μM, CBDVA 50 μM)
Description: as §1, §2, §4, §5

[12] = system: PTZ-induced acute seizure model; parameters: method as in Hill et al., 2014; conditions: ref Hill et al., 2014; cited from earlier work
[13] = system: sodium channels; parameters: method as in Hill et al., 2014; Ghovanloo et al., 2022; conditions: different voltage protocols or model systems; ref Hill et al., 2014; Ghovanloo et al., 2022; read-out: IC50 (low affinity inhibitor of sodium channels); cited from earlier work

T3 sequence (Q9UQD0 whole entry): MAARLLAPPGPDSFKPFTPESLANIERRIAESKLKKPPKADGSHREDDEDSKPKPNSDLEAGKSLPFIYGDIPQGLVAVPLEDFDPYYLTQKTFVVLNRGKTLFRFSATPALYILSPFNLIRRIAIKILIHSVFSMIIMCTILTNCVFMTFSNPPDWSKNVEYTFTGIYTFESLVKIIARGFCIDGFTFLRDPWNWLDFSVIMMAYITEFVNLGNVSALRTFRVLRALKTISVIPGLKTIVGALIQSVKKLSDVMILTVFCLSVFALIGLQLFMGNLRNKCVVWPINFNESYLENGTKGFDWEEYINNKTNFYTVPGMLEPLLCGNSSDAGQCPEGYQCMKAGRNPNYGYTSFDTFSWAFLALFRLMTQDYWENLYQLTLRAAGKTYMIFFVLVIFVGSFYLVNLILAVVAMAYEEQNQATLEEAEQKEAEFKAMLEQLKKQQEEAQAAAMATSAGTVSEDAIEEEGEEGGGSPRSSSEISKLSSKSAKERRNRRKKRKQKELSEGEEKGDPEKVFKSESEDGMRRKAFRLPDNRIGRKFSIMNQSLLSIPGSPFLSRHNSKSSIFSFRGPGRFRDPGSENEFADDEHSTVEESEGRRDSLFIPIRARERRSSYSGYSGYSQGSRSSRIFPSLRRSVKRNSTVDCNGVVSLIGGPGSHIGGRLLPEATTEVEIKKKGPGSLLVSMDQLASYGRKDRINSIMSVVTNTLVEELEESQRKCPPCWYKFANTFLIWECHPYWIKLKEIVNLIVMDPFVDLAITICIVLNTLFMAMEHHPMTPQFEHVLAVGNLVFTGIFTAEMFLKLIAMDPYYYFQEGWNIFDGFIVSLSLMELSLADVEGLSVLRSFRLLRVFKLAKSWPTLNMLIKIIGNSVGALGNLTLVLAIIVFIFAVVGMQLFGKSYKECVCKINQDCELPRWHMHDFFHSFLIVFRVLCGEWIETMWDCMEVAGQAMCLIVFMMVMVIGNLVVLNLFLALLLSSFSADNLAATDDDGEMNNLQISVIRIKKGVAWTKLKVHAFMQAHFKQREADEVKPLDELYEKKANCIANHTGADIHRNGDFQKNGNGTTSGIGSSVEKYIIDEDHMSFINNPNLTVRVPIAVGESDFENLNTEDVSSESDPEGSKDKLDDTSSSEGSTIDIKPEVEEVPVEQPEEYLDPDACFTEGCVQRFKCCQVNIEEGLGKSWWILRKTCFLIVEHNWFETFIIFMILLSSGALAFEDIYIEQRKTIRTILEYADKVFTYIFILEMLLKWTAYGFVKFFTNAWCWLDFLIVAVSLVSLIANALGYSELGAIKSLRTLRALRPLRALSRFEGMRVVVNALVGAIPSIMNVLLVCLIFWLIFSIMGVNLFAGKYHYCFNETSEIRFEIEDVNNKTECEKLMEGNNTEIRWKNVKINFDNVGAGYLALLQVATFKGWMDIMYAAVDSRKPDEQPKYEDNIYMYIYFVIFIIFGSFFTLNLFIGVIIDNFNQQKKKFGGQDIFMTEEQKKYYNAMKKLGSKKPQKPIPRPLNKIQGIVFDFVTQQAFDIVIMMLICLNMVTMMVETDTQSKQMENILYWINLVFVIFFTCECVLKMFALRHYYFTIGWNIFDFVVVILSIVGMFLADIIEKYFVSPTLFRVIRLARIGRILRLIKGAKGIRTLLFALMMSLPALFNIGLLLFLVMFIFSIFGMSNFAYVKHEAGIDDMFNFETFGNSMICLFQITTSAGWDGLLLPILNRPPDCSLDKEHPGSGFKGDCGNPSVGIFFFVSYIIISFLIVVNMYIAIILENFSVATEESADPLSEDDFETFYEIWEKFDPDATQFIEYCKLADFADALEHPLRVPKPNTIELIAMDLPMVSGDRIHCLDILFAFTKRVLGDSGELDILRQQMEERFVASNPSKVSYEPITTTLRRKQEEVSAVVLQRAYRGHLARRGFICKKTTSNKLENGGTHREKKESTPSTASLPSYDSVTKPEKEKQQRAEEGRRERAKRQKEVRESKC
T1 sequence (Q15858 whole entry): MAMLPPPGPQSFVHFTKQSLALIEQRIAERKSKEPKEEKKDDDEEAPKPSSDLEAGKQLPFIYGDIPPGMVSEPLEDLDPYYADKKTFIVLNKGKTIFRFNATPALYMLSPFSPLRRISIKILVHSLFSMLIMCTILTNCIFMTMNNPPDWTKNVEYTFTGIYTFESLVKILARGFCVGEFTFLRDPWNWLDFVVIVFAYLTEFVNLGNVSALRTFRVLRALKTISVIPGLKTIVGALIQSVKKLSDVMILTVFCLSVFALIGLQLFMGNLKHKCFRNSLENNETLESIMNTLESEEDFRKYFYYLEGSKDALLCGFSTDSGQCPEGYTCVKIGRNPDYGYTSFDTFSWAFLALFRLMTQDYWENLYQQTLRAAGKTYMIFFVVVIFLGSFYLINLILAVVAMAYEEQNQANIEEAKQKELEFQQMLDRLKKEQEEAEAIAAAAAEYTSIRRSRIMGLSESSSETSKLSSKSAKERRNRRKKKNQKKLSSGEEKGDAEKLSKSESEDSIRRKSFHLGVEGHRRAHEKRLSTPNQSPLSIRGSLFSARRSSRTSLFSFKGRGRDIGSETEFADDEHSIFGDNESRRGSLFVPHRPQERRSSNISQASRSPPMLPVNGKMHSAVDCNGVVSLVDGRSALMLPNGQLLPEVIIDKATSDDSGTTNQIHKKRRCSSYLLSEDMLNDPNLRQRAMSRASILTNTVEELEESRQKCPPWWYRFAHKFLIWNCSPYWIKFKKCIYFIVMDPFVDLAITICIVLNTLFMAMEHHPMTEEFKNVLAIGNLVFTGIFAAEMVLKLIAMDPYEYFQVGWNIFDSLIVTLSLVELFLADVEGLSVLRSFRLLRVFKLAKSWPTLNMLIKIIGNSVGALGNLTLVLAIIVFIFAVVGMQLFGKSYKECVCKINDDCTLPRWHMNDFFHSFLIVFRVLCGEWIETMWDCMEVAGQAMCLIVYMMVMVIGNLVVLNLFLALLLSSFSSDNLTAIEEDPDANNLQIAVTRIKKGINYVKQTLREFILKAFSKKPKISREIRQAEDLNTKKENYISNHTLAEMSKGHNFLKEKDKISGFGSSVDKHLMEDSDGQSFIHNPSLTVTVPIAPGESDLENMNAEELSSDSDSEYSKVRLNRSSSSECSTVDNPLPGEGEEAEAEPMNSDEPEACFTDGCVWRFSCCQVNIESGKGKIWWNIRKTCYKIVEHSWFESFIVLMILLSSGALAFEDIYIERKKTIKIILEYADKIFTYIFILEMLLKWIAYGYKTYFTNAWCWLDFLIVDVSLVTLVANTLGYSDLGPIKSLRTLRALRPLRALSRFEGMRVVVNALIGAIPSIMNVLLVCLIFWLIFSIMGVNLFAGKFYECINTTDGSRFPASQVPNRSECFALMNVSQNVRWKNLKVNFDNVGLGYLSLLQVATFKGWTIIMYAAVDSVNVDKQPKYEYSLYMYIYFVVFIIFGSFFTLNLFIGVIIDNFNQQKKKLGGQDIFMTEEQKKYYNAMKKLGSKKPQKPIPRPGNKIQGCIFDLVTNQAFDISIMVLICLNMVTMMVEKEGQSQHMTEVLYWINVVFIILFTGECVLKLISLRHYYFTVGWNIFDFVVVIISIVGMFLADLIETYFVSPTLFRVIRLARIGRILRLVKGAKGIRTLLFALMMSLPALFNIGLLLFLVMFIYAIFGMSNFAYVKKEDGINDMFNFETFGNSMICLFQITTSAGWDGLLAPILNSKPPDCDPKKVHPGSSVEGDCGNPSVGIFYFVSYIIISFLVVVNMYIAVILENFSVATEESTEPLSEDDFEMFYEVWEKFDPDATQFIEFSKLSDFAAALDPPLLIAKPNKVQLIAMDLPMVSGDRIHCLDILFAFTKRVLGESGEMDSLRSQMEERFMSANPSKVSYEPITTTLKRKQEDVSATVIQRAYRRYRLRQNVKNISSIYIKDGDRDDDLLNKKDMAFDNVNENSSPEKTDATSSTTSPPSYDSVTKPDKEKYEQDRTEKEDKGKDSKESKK

CCCCCc1cc(O)c2c(c1)OC(C)(CCC=C(C)C)C=C2 (centres unmarked) [CBC, cannabichromene]
Effect in electrically induced seizure model [1]: ineffective | Effect on peak sodium current (in words) [2]: modestly inhibited | Effect on peak sodium current (in words) [3]: modestly inhibited | Effect on peak sodium current (in words) [4]: modestly inhibited | Effect on peak sodium current (in words) [5]: modestly inhibited | Effect against hyperthermia-induced seizures [6]: anti-convulsant properties

C=C(C)[C@@H]1CCC(C)=C[C@H]1c1c(O)cc(CCC)c(C(=O)O)c1O [CBDVA, cannabidivarinic acid]
Estimated brain concentration attained at anti-convulsant doses [7]: 5.5 µM | Inactivation △ V0.5 inact ([8]; SSFI): −4.1 ± 0.9*** mV | Inactivation △ slope factor ([8]; SSFI): 1.6 ± 0.3**** | Activation △ Slope factor [8]: 0.9 ± 0.2*** | Activation △ V0.5 act [8]: 8.7 ± 1.8*** mV | Inactivation △ τinact SSFI at 5 mV [8]: 0.3 ± 0.07** | Inactivation △ V0.5 inact ([9]; SSFI): −2.3 ± 1.5 mV | Inactivation △ slope factor ([9]; SSFI): 1.0 ± 0.2*** | Activation △ Slope factor [9]: 0.9 ± 0.2**** | Activation △ V0.5 act [9]: 11.5 ± 1.5**** mV | Inactivation △ τinact SSFI at 5 mV [9]: 0.4 ± 0.06**** | Inactivation △ V0.5 inact ([10]; SSFI): −3.0 ± 1.3* mV | Inactivation △ slope factor ([10]; SSFI): 0.5 ± 0.3 | Activation △ Slope factor [10]: 1.9 ± 0.7* | Activation △ V0.5 act [10]: 10.4 ± 2.9** mV | Inactivation △ τinact SSFI at 5 mV [10]: 0.3 ± 0.09** | Inactivation △ V0.5 inact ([11]; SSFI): −10.1 ± 2.3** mV | Inactivation △ slope factor ([11]; SSFI): 1.8 ± 0.3*** | Activation △ Slope factor [11]: 1.7 ± 0.4*** | Activation △ V0.5 act [11]: 13.0 ± 1.6**** mV | Inactivation △ τinact SSFI at 5 mV [11]: 0.4 ± 0.05**** | Effect on peak sodium current (in words) [2]: only partially inhibited | IC50 ([2]; NaV1.7 peak current, 0.1–100 µM, 5 min exposure, mean ± SEM): ≥ 60 µM | Effect on peak sodium current (in words) [3]: only partially inhibited | IC50 ([3]; NaV1.2 peak current, 0.1–100 µM, 5 min exposure, mean ± SEM): ≥ 60 µM | Slope (Hill slope coefficient) ([4]; NaV1.6 concentration-response, mean ± SEM): 2.1 ± 0.5 | IC50 ([4]; NaV1.6 peak current, 0.1–100 µM, 5 min exposure, mean ± SEM): 24.1 ± 1.2 µM | Effect on peak sodium current (in words) [5]: only partially inhibited | Effect against hyperthermia-induced seizures [6]: anti-convulsant properties

CCCCCc1cc2c(c(O)c1C(=O)O)C=CC(C)(CCC=C(C)C)O2 (centres unmarked) [CBCA, cannabichromenic acid]
Effect on peak sodium current (in words) [2]: modestly inhibited | Effect on peak sodium current (in words) [3]: modestly inhibited | Effect on peak sodium current (in words) [4]: modestly inhibited | Effect on peak sodium current (in words) [5]: modestly inhibited | Effect against hyperthermia-induced seizures [6]: anti-convulsant properties

CCCCCc1cc(O)c(C/C=C(\C)CCC=C(C)C)c(O)c1 [CBG, cannabigerol]
Anti-convulsant effect in PTZ-induced acute seizure model [12]: ineffective | IC50 [13]: 2 to 22 µM | Effect on peak sodium current (in words) [2]: modestly inhibited | Effect on peak sodium current (in words) [3]: modestly inhibited | Effect on peak sodium current (in words) [4]: modestly inhibited | Effect on peak sodium current (in words) [5]: modestly inhibited | Effect against hyperthermia-induced seizures [6]: ineffective
